The experiment relates to P388 leukemia ip, CD2F1 mice, survival T/C. In words: NCI In Vivo Anticancer Drug Screen. Data for tumor model P388 Leukemia (intraperitoneal) in CD2F1 (CDF1) mice. The settings on record: endpoint: median survival time, higher = longer survival. The gist of the method: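 Mice carrying the transplanted tumor received test compound or vehicle. Survival was recorded in each group, and the value is the treated-group measurement divided by that of the vehicle-treated control group.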

[1] abbreviates: dose: 50.0 mg/kg/injection, schedule: Q01DX005 (ip), vehicle: Klucel (hydroxypropylcellulose) (HPC).
The mark [2] stands for this setting: dose: 60.0 mg/kg/injection, schedule: Q01DX005 (ip), vehicle: saline with Tween-80.
Setting [3] is: dose: 120.0 mg/kg/injection, schedule: Q01DX005 (ip), vehicle: saline with Tween-80.
[4] abbreviates: dose: 240.0 mg/kg/injection, schedule: Q01DX005 (ip), vehicle: saline with Tween-80.
[5] abbreviates: dose: 25.0 mg/kg/injection, schedule: Q01DX009 (ip), vehicle: saline with Tween-80.
[6] abbreviates: dose: 50.0 mg/kg/injection, schedule: Q01DX009 (ip), vehicle: saline with Tween-80.
Setting [7] is: dose: 100.0 mg/kg/injection, schedule: Q01DX009 (ip), vehicle: saline with Tween-80.
Setting [8] is: dose: 200.0 mg/kg/injection, schedule: Q01DX009 (ip), vehicle: saline with Tween-80.
The mark [9] stands for this setting: dose: 100.0 mg/kg/injection, schedule: Q01DX005 (ip), vehicle: Klucel (hydroxypropylcellulose) (HPC).
Setting [10] is: dose: 25.0 mg/kg/injection, schedule: Q01DX005 (ip), vehicle: saline with Tween-80.
The mark [11] stands for this setting: dose: 50.0 mg/kg/injection, schedule: Q01DX005 (ip), vehicle: saline with Tween-80.
[12] abbreviates: dose: 100.0 mg/kg/injection, schedule: Q01DX005 (ip), vehicle: saline with Tween-80.
Setting [13] is: dose: 200.0 mg/kg/injection, schedule: Q01DX005 (ip), vehicle: saline with Tween-80.
Where [14] appears, read: dose: 100.0 mg/kg/injection, schedule: Q04DX003 (ip), vehicle: saline with Tween-80.
[15] abbreviates: dose: 200.0 mg/kg/injection, schedule: Q04DX003 (ip), vehicle: saline with Tween-80.
The mark [16] stands for this setting: dose: 400.0 mg/kg/injection, schedule: Q04DX003 (ip), vehicle: saline with Tween-80.
[17] abbreviates: dose: 200.0 mg/kg/injection, schedule: Q01DX005 (ip), vehicle: Klucel (hydroxypropylcellulose) (HPC).
Setting [18] is: dose: 12.5 mg/kg/injection, schedule: Q04DX003 (ip), vehicle: Klucel (hydroxypropylcellulose) (HPC).

Where “and” joins values, the source holds several entries; their conditions need not be identical. Equal values may be shown once. Toxic doses and inconclusive results are not listed.

For 28 molecules, T/C results are on record in PubChem BioAssay AID330 (DTP/NCI, 2004).

As for `CCCCCCCCCCCC1CCCC(C)N1` (configuration not stated), the T/C by setting is: (dose: 12.5 mg/kg/injection, schedule: Q01DX005 (ip), vehicle: Klucel (hydroxypropylcellulose) (HPC)) 104 % of control; (dose: 25.0 mg/kg/injection, schedule: Q01DX005 (ip), vehicle: Klucel (hydroxypropylcellulose) (HPC)) 100 % of control; under setting [1], 101 % of control.

Turning to `O=C(O)C12CCC(c3ccccc31)c1ccccc12`, the T/C reads like this: under setting [2], 101 % of control; under setting [3], 107 % of control; under setting [4], 100 % of control.

For the molecule `CCCCN(CCCC)CC(O)c1ccc2cc(Cl)cc(Cl)c2n1` (configuration not stated), the T/C (dose: 6.25 mg/kg/injection, schedule: Q01DX009 (ip), vehicle: saline with Tween-80) is 90 % of control; the T/C (dose: 12.5 mg/kg/injection, schedule: Q01DX009 (ip), vehicle: saline with Tween-80) is 100 % of control; the T/C under setting [5] was 100 % of control.

As to `CC/C(=N\NC(=S)SC)c1ccccc1`, the T/C by setting is: under setting [6], 91 % of control; under setting [7], 100 % of control; under setting [8], 97 % of control.

Turning to `C1CCCCC2=NCCC(CCCC1)C2` (configuration not stated), the T/C is 103 % of control under setting [1] and 107 % of control under setting [9].

On to `CNC(=O)Cc1ccc2cc(OC)c(OC)cc2c1`, for which the T/C reads like this: under setting [6], 90 % of control; under setting [7], 95 % of control; under setting [8], 90 % of control.

For the molecule `CCOC(=O)CCC1(C)Sc2ccccc2N1C` (configuration not stated), the T/C reads like this: under setting [2], 107 % of control; under setting [3], 110 % of control; under setting [4], 107 % of control.

Take `CCCCOc1ccc(-c2cnc(-c3ccc(-c4ncc(-c5ccc(OCCCC)cc5)o4)cc3)o2)cc1`: the T/C reads like this: (dose: 3.0 mg/kg/injection, schedule: Q01DX005 (ip), vehicle: saline with Tween-80) 91 % of control; (dose: 6.0 mg/kg/injection, schedule: Q01DX005 (ip), vehicle: saline with Tween-80) 88 % of control; under setting [10], 89 % of control; under setting [11], 87 % of control and 94 % of control; under setting [12], 99 % of control; under setting [13], 108 % of control.

On to `O=[N+]([O-])c1cccnc1Sc1ncccn1`, for which the T/C under setting [14] is 100 % of control, the T/C under setting [15] is 100 % of control and the T/C under setting [16] is 100 % of control.

On to `CCCn1c(Cl)c(/C=N\Nc2ccc([N+](=O)[O-])cc2[N+](=O)[O-])c2ccccc21`, for which the T/C was 92 % of control under setting [14], 97 % of control under setting [15] and 92 % of control under setting [16].

`O=C(O)CNC(=O)C(CSCc1ccccc1)NC(=O)OCc1ccccc1` (configuration not stated): the T/C is 103 % of control under setting [1]; 101 % of control under setting [6]; 102 % of control under setting [9]; 99 % of control under setting [7]; 100 % of control under setting [17]; 99 % of control under setting [8].

On to `O=C(c1cc(Cl)c(Cl)c([N+](=O)[O-])c1Cl)C(Cl)Cl`, for which the T/C is, setting by setting: (dose: 25.0 mg/kg/injection, schedule: Q04DX003 (ip), vehicle: Klucel (hydroxypropylcellulose) (HPC)) 104 % of control; (dose: 50.0 mg/kg/injection, schedule: Q04DX003 (ip), vehicle: Klucel (hydroxypropylcellulose) (HPC)) 99 % of control; (dose: 100.0 mg/kg/injection, schedule: Q04DX003 (ip), vehicle: Klucel (hydroxypropylcellulose) (HPC)) 103 % of control.

Take `CCOC(=O)Cc1c[nH]c2ccc(N(CCCl)CCCl)cc12`: the T/C was 204 % of control (dose: 5.0 mg/kg/injection, schedule: Q04DX003 (ip), vehicle: Klucel (hydroxypropylcellulose) (HPC)); 245 % of control (dose: 8.0 mg/kg/injection, schedule: Q04DX003 (ip), vehicle: Klucel (hydroxypropylcellulose) (HPC)); 245 % of control under setting [18].

`CN(C)c1ccc(NC2=C(Cl)C(=O)C(Nc3ccc(N(C)C)cc3)=C(Cl)C2=O)cc1`: the T/C is, setting by setting: under setting [10], 101 % of control; under setting [11], 92 % of control; under setting [12], 88 % of control.

As for `Cc1ccc(S(=O)(=O)NC(=O)O/N=C/c2ccc3c(c2)OCO3)cc1`, the T/C is, setting by setting: under setting [6], 100 % of control; under setting [7], 97 % of control; under setting [8], 100 % of control.

Consider `CSc1nc(N)c(NS(=O)(=O)c2ccccc2[N+](=O)[O-])c(=O)[nH]1`, for which the T/C was 100 % of control under setting [1], 90 % of control under setting [9] and 90 % of control under setting [17].

In the case of `CCOC(=O)C1=C(N)N(S(=O)(=O)c2ccc(C)cc2)CCC(C(=O)OC)=C1`, the T/C under setting [3] is 119 % of control and the T/C under setting [4] is 108 % of control.

As for `S=C1NCC(c2ccccc2)(c2ccccc2)N1`, the T/C (dose: 6.25 mg/kg/injection, schedule: Q04DX003 (ip), vehicle: Klucel (hydroxypropylcellulose) (HPC)) was 103 % of control and the T/C under setting [18] was 98 % of control.

Consider `COC1=CC2CCN3C=C(C#N)C(C#N)CC3C2C=C1OC` (configuration not stated), for which the T/C runs as follows: under setting [11], 95 % of control; under setting [12], 111 % of control; under setting [13], 111 % of control.

With `O=C(C=C(C(F)(F)F)C(F)(F)F)c1cccc(S(=O)(=O)F)c1`, the T/C runs as follows: (dose: 3.13 mg/kg/injection, schedule: Q04DX003 (ip), vehicle: saline) 100 % of control; (dose: 6.25 mg/kg/injection, schedule: Q04DX003 (ip), vehicle: saline) 100 % of control; (dose: 12.5 mg/kg/injection, schedule: Q04DX003 (ip), vehicle: saline) 95 % of control.

Consider `NC(=S)N/N=C/c1cccnc1`, for which the T/C was 92 % of control under setting [5], 92 % of control under setting [6], 99 % of control under setting [7] and 92 % of control under setting [8].

Regarding `CC(=O)OCc1ccc(O)c(C=O)c1`, the T/C is 118 % of control (dose: 12.5 mg/kg/injection, schedule: Q01DX005 (ip), vehicle: saline with Tween-80) and 113 % of control under setting [11].

Turning to `COc1ccc2nc(C)c3c(c2c1)C(=O)N(CCC[N+]1([O-])CC[N+]([O-])(CCCN2C(=O)c4c(c5cc(OC)ccc5[n+]([O-])c4C)C2=O)CC1)C3=O` (configuration not stated), the T/C reads like this: under setting [2], 87 % of control; under setting [3], 89 % of control; under setting [4], 92 % of control.

For `Cc1c[n+]2ccc3ccccc3c2c2ccccc12`, the T/C reads like this: (dose: 2.2 mg/kg/injection, schedule: Q01DX009 (ip), vehicle: Klucel (hydroxypropylcellulose) (HPC)) 119 % of control; (dose: 2.5 mg/kg/injection, schedule: Q01DX009 (ip), vehicle: Klucel (hydroxypropylcellulose) (HPC)) 116 % of control; (dose: 3.3 mg/kg/injection, schedule: Q01DX009 (ip), vehicle: Klucel (hydroxypropylcellulose) (HPC)) 120 % of control; (dose: 5.0 mg/kg/injection, schedule: Q01DX009 (ip), vehicle: Klucel (hydroxypropylcellulose) (HPC)) 122 % of control.

For the molecule `CS(=O)(=O)C(CCC(=O)c1cccs1)C(=O)c1ccccc1` (configuration not stated), the T/C is, setting by setting: under setting [1], 89 % of control; under setting [9], 91 % of control; under setting [17], 89 % of control.

`CC(C)CCCC(C)C1CCC2C3CC=C4CC(O)CCC4(C)C3CCC12C` (configuration not stated) (tested in a mixture with another compound): the T/C by setting is: (dose: 3.12 mg/kg/injection, schedule: Q01DX009 (ip), vehicle: saline) 87 % of control; (dose: 6.25 mg/kg/injection, schedule: Q01DX009 (ip), vehicle: saline) 92 % of control; (dose: 12.5 mg/kg/injection, schedule: Q01DX009 (ip), vehicle: saline) 94 % of control; (dose: 25.0 mg/kg/injection, schedule: Q01DX009 (ip), vehicle: saline) 94 % of control.

For the molecule `c1ccc(-c2cc3ccc4cccnc4c3o2)cc1`, the T/C (dose: 100.0 mg/kg/injection, schedule: Q04DX002 (ip), vehicle: saline with Tween-80) is 91 % of control; the T/C (dose: 200.0 mg/kg/injection, schedule: Q04DX002 (ip), vehicle: saline with Tween-80) was 87 % of control; the T/C (dose: 400.0 mg/kg/injection, schedule: Q04DX002 (ip), vehicle: saline with Tween-80) is 103 % of control.

`COc1cc2c[n+](C)c3c(c2cc1OC)Cc1c-3ccc(O)c1OC`: where the note is “dose: 100.0 mg/kg/injection, schedule: Q01DX001 (ip), vehicle: Klucel (hydroxypropylcellulose) (HPC)”, the T/C was 116 % of control.
